Source: US11446282B2, “Methods of treating mixed dyslipidemia and hypertriglycertdemia” (Kowa Company, Ltd., priority 2017, dated 2022)

System: dyslipidemic patients with renal impairment
Experiment: Example 3 phase III 52-week trial: lipid levels
Type: in vivo, human
Conditions: for HDL-C % Change from baseline at Week 52 (LOCF) / HDL-C Week 52 (LOCF) / LDL-C % Change from baseline at Week 52 (LOCF) / LDL-C Week 52 (LOCF) / RemL-C % Change from baseline at Week 52 (LOCF) / RemL-C Week 52 (LOCF) / TG % Change from baseline at Week 52 (LOCF) / TG Week 52 (LOCF) / TG/HDL-C % Change from baseline at Week 52 (LOCF) / TG/HDL-C Week 52 (LOCF) / apoA1 % Change from baseline at Week 52 (LOCF) / apoA1 Week 52 (LOCF) / non-HDL-C % Change from baseline at Week 52 (LOCF) / non-HDL-C Week 52 (LOCF): 0.2 (0.4) mg/day
Procedure: This was a multicenter, single-arm, open-label, phase III trial. The inclusion criteria were as follows: (1) patients with dyslipidemia aged >20 years at the time of informed consent; (2) men and postmenopausal women; (3) fasting serum TG≥1.70 mmol/L (150 mg/dL) at two consecutive measurements during screening; and (4) patients who followed dietary and physical exercise guidance for >12 weeks before enrollment.
The major exclusion criteria were as follows: (1) patients with fasting serum TG≥5.65 mmol/L (500 mg/dL) during screening; (2) patients with poorly controlled diabetes mellitus (hemoglobin A1c [HbA1c]≥10.5%); (3) patients with concurrent poorly controlled thyroid disease; (4) men with serum creatinine ≥2.5 mg/dL and women with serum creatinine ≥2.0 mg/dL during screening who were already on statin therapy; (5) patients with eGFR<45 mL/min/1.73 m^2 during screening who were already on statin therapy; (6) patients with CK>5ULN (270 IU/L for men, 150 IU/L for women) during screening who were already on statin therapy; (7) patients with serious liver disease (cirrhosis Child-Pugh Class B or higher); (8) patients with gallstones or serious biliary tract disease; (9) patients who had suffered an acute myocardial infarction or stroke within three months before informed consent; and (10) patients with New York Heart Association class III or IV heart failure.
During the screening period (8 weeks prior to treatment initiation), tests were performed twice to determine patient eligibility. Thereafter, eligible patients orally received pemafibrate 0.2 mg/day (twice daily) for 52 weeks. From week 12 of the treatment period onwards, the investigators were instructed that the dose could be increased from 0.2 mg/day to 0.4 mg/day (twice daily) if there was an inadequate response to the initial dose based on fasting serum TG levels ≥1.70 mmol/L (150 mg/dL). Fasting blood and urine samples were collected at each visit. Blood and urine sample in patients with hemodialysis were collected just before dialysis. LDL-C levels were measured using the direct method. Lipoprotein fractions were measured by HPLC at baseline and weeks 12 and 40.
The primary efficacy endpoint was the percent change in fasting serum TG from baseline to the last evaluation point. The primary safety endpoints were the incidence of an AE or ADR occurring after drug administration during the study. Secondary efficacy endpoints included percent changes in lipid variables and changes in inflammation variables at week 52 [using the last-observation-carried-forward (LOCF)]. Secondary safety endpoints included changes in the levels of aspartate aminotransferase (AST), ALT, -GT, ALP, serum creatinine, eGFR, and CK at week 52. Each baseline value was defined as (1) the mean of the corresponding values in the first and second tests at the screening examination and at week 0 of the treatment period for fasting serum TG, HDL-C, total cholesterol (TC), LDL-C, and non-HDL-C; and (2) the value at week 0 of the treatment period for the other secondary variables.
The target sample size was set to 170 patients based on the number required to evaluate safety according to the International Conference on Harmonisation (ICH)-E1 guideline “Extent of population exposure to assess clinical safety for drugs intended for long-term treatment of non-life-threatening conditions”. For the primary efficacy endpoint, one-sample t-tests were performed.
The numbers of patients with AEs and ADRs and the incidences of AEs and ADRs were calculated in the analysis of primary safety endpoints. For the secondary efficacy endpoints, one-sample t-tests or Wilcoxon signed-rank tests [for high-sensitivity C-reactive protein (hsCRP) and IL-1] were performed. The secondary safety endpoints were analyzed with Wilcoxon signed-rank tests. A two-sided significance level of 0.05 was used. SAS v. 9.3 (SAS Institute Inc., Cary, N.C., USA) was used for these analyses. […]

## CC[C@@H](Oc1cccc(CN(CCCOc2ccc(OC)cc2)c2nc3ccccc3o2)c1)C(=O)O [Pemafibrate, (2R)-2-[3-({1,3-benzoxazol-2-yl[3-(4-methoxyphenoxy)propyl]amino}methyl)phenoxy]butanoic acid]
All Participants
  HDL-C % Change from baseline at Week 52 (LOCF): 13.1%
  HDL-C Week 52 (LOCF): 1.33 mmol/L
  LDL-C % Change from baseline at Week 52 (LOCF): 2.2%
  LDL-C Week 52 (LOCF): 3.02 mmol/L
  RemL-C % Change from baseline at Week 52 (LOCF): −57.2%
  RemL-C Week 52 (LOCF): 0.18 mmol/L
  TG % Change from baseline at Week 52 (LOCF): −45.8%
  TG Week 52 (LOCF): 1.48 mmol/L
  TG/HDL-C % Change from baseline at Week 52 (LOCF): −49.7%
  TG/HDL-C Week 52 (LOCF): 2.27 (mmol/L)/(mmol/L)
  apoA1 % Change from baseline at Week 52 (LOCF): 5.0%
  apoA1 Week 52 (LOCF): 137.6 mg/dL
  non-HDL-C % Change from baseline at Week 52 (LOCF): −8.7%
  non-HDL-C Week 52 (LOCF): 3.63 mmol/L
eGFR G1 (≥90)
  HDL-C % Change from baseline at Week 52 (LOCF): 3.6%
  HDL-C Week 52 (LOCF): 1.29 mmol/L
  LDL-C % Change from baseline at Week 52 (LOCF): 2.7%
  LDL-C Week 52 (LOCF): 3.12 mmol/L
  RemL-C % Change from baseline at Week 52 (LOCF): −59.9%
  RemL-C Week 52 (LOCF): 0.21 mmol/L
  TG % Change from baseline at Week 52 (LOCF): −41.4%
  TG Week 52 (LOCF): 1.71 mmol/L
  TG/HDL-C % Change from baseline at Week 52 (LOCF): −40.5%
  TG/HDL-C Week 52 (LOCF): 1.58 (mmol/L)/(mmol/L)
  apoA1 % Change from baseline at Week 52 (LOCF): 0.0%
  apoA1 Week 52 (LOCF): 133.8 mg/dL
  non-HDL-C % Change from baseline at Week 52 (LOCF): −8.3%
  non-HDL-C Week 52 (LOCF): 3.77 mmol/L
eGFR G2 (≥60 and <90)
  HDL-C % Change from baseline at Week 52 (LOCF): 11.9%
  HDL-C Week 52 (LOCF): 1.34 mmol/L
  LDL-C % Change from baseline at Week 52 (LOCF): 2.1%
  LDL-C Week 52 (LOCF): 3.03 mmol/L
  RemL-C % Change from baseline at Week 52 (LOCF): −56.0%
  RemL-C Week 52 (LOCF): 0.18 mmol/L
  TG % Change from baseline at Week 52 (LOCF): −45.8%
  TG Week 52 (LOCF): 1.47 mmol/L
  TG/HDL-C % Change from baseline at Week 52 (LOCF): −48.9%
  TG/HDL-C Week 52 (LOCF): 1.24 (mmol/L)/(mmol/L)
  apoA1 % Change from baseline at Week 52 (LOCF): 4.1%
  apoA1 Week 52 (LOCF): 137.2 mg/dL
  non-HDL-C % Change from baseline at Week 52 (LOCF): −8.4%
  non-HDL-C Week 52 (LOCF): 3.64 mmol/L
eGFR G3a-G3b (≥30 and <60)
  HDL-C % Change from baseline at Week 52 (LOCF): 17.0%
  HDL-C Week 52 (LOCF): 1.38 mmol/L
  LDL-C % Change from baseline at Week 52 (LOCF): 5.1%
  LDL-C Week 52 (LOCF): 2.97 mmol/L
  RemL-C % Change from baseline at Week 52 (LOCF): −59.3%
  RemL-C Week 52 (LOCF): 0.17 mmol/L
  TG % Change from baseline at Week 52 (LOCF): −51.1%
  TG Week 52 (LOCF): 1.36 mmol/L
  TG/HDL-C % Change from baseline at Week 52 (LOCF): −57.0%
  TG/HDL-C Week 52 (LOCF): 1.09 (mmol/L)/(mmol/L)
  apoA1 % Change from baseline at Week 52 (LOCF): 8.0%
  apoA1 Week 52 (LOCF): 144.0 mg/dL
  non-HDL-C % Change from baseline at Week 52 (LOCF): −7.7%
  non-HDL-C Week 52 (LOCF): 3.56 mmol/L
eGFR G4-G5 (<30)
  HDL-C % Change from baseline at Week 52 (LOCF): 34.1%
  HDL-C Week 52 (LOCF): 1.18 mmol/L
  LDL-C % Change from baseline at Week 52 (LOCF): −8.8%
  LDL-C Week 52 (LOCF): 2.82 mmol/L
  RemL-C % Change from baseline at Week 52 (LOCF): −57.1%
  RemL-C Week 52 (LOCF): 0.24 mmol/L
  TG % Change from baseline at Week 52 (LOCF): −37.7%
  TG Week 52 (LOCF): 1.64 mmol/L
  TG/HDL-C % Change from baseline at Week 52 (LOCF): −51.0%
  TG/HDL-C Week 52 (LOCF): 1.68 (mmol/L)/(mmol/L)
  apoA1 % Change from baseline at Week 52 (LOCF): 16.7%
  apoA1 Week 52 (LOCF): 122.4 mg/dL
  non-HDL-C % Change from baseline at Week 52 (LOCF): −17.3%
  non-HDL-C Week 52 (LOCF): 3.48 mmol/L
Lowest eGFR group (eGFR<30 mL/min/1.73 m^2: G4-G5)
  LDL-C change (observation): reduction
